# Reference: PubChem BioAssay AID1963448 (Molecular Pharmacology Branch, DTP, NCI, 2024)
# Values joined by “and” are separate entries in the source; they are usually repeats but may differ in a detail not shown here. Equal entries are not always repeated.
# Test system: 616215-338-R-J1-PDC complex spheroid growth, % test/control
# Assay: Anticancer human tumor 616215-338-R-J1-PDC patient-derived colon adenocarcinoma cell line growth inhibition [Asc]
# Details: for viability, T/C: stronger effect = lower value
# Summary of the method: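 Spheroid model: tumor line + HUVEC + hMSC. Single agents and combinations; top conc. at/near clinical Cmax (10 microM if undetermined), half-log dilutions. DMSO stocks at 800-fold test concentration.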
# [1] = curve of first compound, second compound 0.03 µM
# [2] = curve of first compound, second compound 0.0949 µM
# [3] = curve of first compound, second compound 0.3 µM
# [4] = curve of first compound, second compound 0.949 µM
# [5] = curve of first compound, second compound 3 µM
# [6] = second compound 0.03 µM, first compound 0.0316 µM
# [7] = second compound 0.03 µM, first compound 0.1 µM
# [8] = second compound 0.03 µM, first compound 0.316 µM
# [9] = second compound 0.03 µM, first compound 1 µM
# [10] = second compound 0.03 µM, first compound 3.16 µM
# [11] = second compound 0.03 µM, first compound 10 µM
# [12] = second compound 0.0949 µM, first compound 0.0316 µM
# [13] = second compound 0.0949 µM, first compound 0.1 µM
# [14] = second compound 0.0949 µM, first compound 0.316 µM
# [15] = second compound 0.0949 µM, first compound 1 µM
# [16] = second compound 0.0949 µM, first compound 3.16 µM
# [17] = second compound 0.0949 µM, first compound 10 µM
# [18] = second compound 0.3 µM, first compound 0.0316 µM
# [19] = second compound 0.3 µM, first compound 0.1 µM
# [20] = second compound 0.3 µM, first compound 0.316 µM
# [21] = second compound 0.3 µM, first compound 1 µM
# [22] = second compound 0.3 µM, first compound 3.16 µM
# [23] = second compound 0.3 µM, first compound 10 µM
# [24] = second compound 0.949 µM, first compound 0.0316 µM
# [25] = second compound 0.949 µM, first compound 0.1 µM
# [26] = second compound 0.949 µM, first compound 0.316 µM
# [27] = second compound 0.949 µM, first compound 1 µM
# [28] = second compound 0.949 µM, first compound 3.16 µM
# [29] = second compound 0.949 µM, first compound 10 µM
# [30] = second compound 3 µM, first compound 0.0316 µM
# [31] = second compound 3 µM, first compound 0.1 µM
# [32] = second compound 3 µM, first compound 0.316 µM
# [33] = second compound 3 µM, first compound 1 µM
# [34] = second compound 3 µM, first compound 3.16 µM
# [35] = second compound 3 µM, first compound 10 µM
# [36] = curve of first compound, second compound 0.1 µM
# [37] = curve of first compound, second compound 0.316 µM
# [38] = curve of first compound, second compound 1 µM
# [39] = second compound 0.1 µM, first compound 0.00316 µM
# [40] = second compound 0.1 µM, first compound 0.01 µM
# [41] = second compound 0.1 µM, first compound 0.0316 µM
# [42] = second compound 0.1 µM, first compound 0.1 µM
# [43] = second compound 0.1 µM, first compound 0.316 µM
# [44] = second compound 0.1 µM, first compound 1 µM
# [45] = second compound 0.316 µM, first compound 0.00316 µM
# [46] = second compound 0.316 µM, first compound 0.01 µM
# [47] = second compound 0.316 µM, first compound 0.0316 µM
# [48] = second compound 0.316 µM, first compound 0.1 µM
# [49] = second compound 0.316 µM, first compound 0.316 µM
# [50] = second compound 0.316 µM, first compound 1 µM
# [51] = second compound 1 µM, first compound 0.00316 µM
# [52] = second compound 1 µM, first compound 0.01 µM
# [53] = second compound 1 µM, first compound 0.0316 µM
# [54] = second compound 1 µM, first compound 0.1 µM
# [55] = second compound 1 µM, first compound 0.316 µM
# [56] = second compound 1 µM, first compound 1 µM
# 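Also: spheroids exposed to agents for seven days before readout.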
# 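For viability, T/C in this document: 100% = DMSO vehicle control viability.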
structure (smiles),measurement,setting,value
C=CC(=O)N1CCN(c2nc(=O)n(-c3c(C)ccnc3C(C)C)c3nc(-c4c(O)cccc4F)c(F)cc23)C(C)C1 (centres undefined) + CCN1C(C(=O)NC23CCC(C(=O)O)(CC2)CC3)C(c2cccc(Cl)c2F)C2(C(=O)Nc3cc(Cl)ccc32)C12CCCCC2,IC50,[1],> 10000 nM
same,IC50,[2],> 10000 nM
same,IC50,[3],> 10000 nM
same,IC50,[4],> 10000 nM
same,IC50,[5],84.2 nM
same,"viability, T/C",[6],100%
same,"viability, T/C",[7],96.3%
same,"viability, T/C",[8],102%
same,"viability, T/C",[9],102%
same,"viability, T/C",[10],98.2%
same,"viability, T/C",[11],101%
same,"viability, T/C",[12],89.3%
same,"viability, T/C",[13],93.7%
same,"viability, T/C",[14],89.1%
same,"viability, T/C",[15],88.8%
same,"viability, T/C",[16],92.9%
same,"viability, T/C",[17],85.5%
same,"viability, T/C",[18],68.5%
same,"viability, T/C",[19],64.5%
same,"viability, T/C",[20],66.8%
same,"viability, T/C",[21],69.2%
same,"viability, T/C",[22],67.3%
same,"viability, T/C",[23],68.7%
same,"viability, T/C",[24],61.7%
same,"viability, T/C",[25],65%
same,"viability, T/C",[26],65.5%
same,"viability, T/C",[27],58.1%
same,"viability, T/C",[28],60%
same,"viability, T/C",[29],57.2%
same,"viability, T/C",[30],48.2%
same,"viability, T/C",[31],49.8%
same,"viability, T/C",[32],52.5%
same,"viability, T/C",[33],50.3%
same,"viability, T/C",[34],48.9%
same,"viability, T/C",[35],45.6%
O=C(c1cc(Cc2n[nH]c(=O)c3ccccc23)ccc1F)N1CCN(C(=O)C2CC2)CC1 + CCN1C(C(=O)NC23CCC(C(=O)O)(CC2)CC3)C(c2cccc(Cl)c2F)C2(C(=O)Nc3cc(Cl)ccc32)C12CCCCC2,IC50,[1],> 10000 nM
same,IC50,[2],> 10000 nM
same,IC50,[3],> 10000 nM
same,IC50,[4],> 10000 nM
same,IC50,[5],> 10000 nM
same,"viability, T/C",[6],101%
same,"viability, T/C",[7],99.1%
same,"viability, T/C",[8],99.4%
same,"viability, T/C",[9],99.8%
same,"viability, T/C",[10],94.1%
same,"viability, T/C",[11],77.6%
same,"viability, T/C",[12],99%
same,"viability, T/C",[13],100%
same,"viability, T/C",[14],97.8%
same,"viability, T/C",[15],92.2%
same,"viability, T/C",[16],81.2%
same,"viability, T/C",[17],67.5%
same,"viability, T/C",[18],73.3%
same,"viability, T/C",[19],72.6%
same,"viability, T/C",[20],78%
same,"viability, T/C",[21],71.8%
same,"viability, T/C",[22],61.4%
same,"viability, T/C",[23],65.2%
same,"viability, T/C",[24],74.7%
same,"viability, T/C",[25],80.8%
same,"viability, T/C",[26],72.4%
same,"viability, T/C",[27],68.5%
same,"viability, T/C",[28],67%
same,"viability, T/C",[29],55.7%
same,"viability, T/C",[30],61.4%
same,"viability, T/C",[31],62.5%
same,"viability, T/C",[32],60.5%
same,"viability, T/C",[33],60.1%
same,"viability, T/C",[34],51.8%
same,"viability, T/C",[35],48.8%
C=CC(=O)N1CCN(c2nc(=O)n(-c3c(C)ccnc3C(C)C)c3nc(-c4c(O)cccc4F)c(F)cc23)C(C)C1 (centres undefined),"viability, T/C",compound 0.0316 µM,97% and 99.6% and 107%
same,"viability, T/C",compound 0.1 µM,95.3% and 101% and 91.9%
same,"viability, T/C",compound 0.316 µM,102% and 98.2% and 97.2%
same,"viability, T/C",compound 1 µM,102% and 100% and 74.5%
same,"viability, T/C",compound 3.16 µM,106% and 109% and 52.6%
same,"viability, T/C",compound 10 µM,102% and 106% and 35.4%
same,IC50,curve of compound,> 10000 nM and 3750 nM
O=C(c1ccc(F)c(F)c1Nc1ccc(I)cc1F)N1CC(O)([C@@H]2CCCCN2)C1 + Cc1c(S(C)(=O)=O)c(-c2cc(F)cc(N3CCN(c4ccc(NS(=O)(=O)c5ccc(NC(CCN6CCC(C(=O)OCCCP(=O)(O)O)CC6)CSc6ccccc6)c(S(=O)(=O)C(F)(F)F)c5)cc4)CC3)c2)c(-c2ccc(Cl)cc2)n1C(C)C,IC50,[36],64.4 nM
same,IC50,[37],58.4 nM
same,IC50,[38],38.3 nM
same,IC50,"curve of first compound, second compound 3.16 µM",< 3.16 nM
same,IC50,"curve of first compound, second compound 10 µM",< 3.16 nM
same,"viability, T/C",[39],92.4%
same,"viability, T/C",[40],91.7%
same,"viability, T/C",[41],79.5%
same,"viability, T/C",[42],32%
same,"viability, T/C",[43],1.51%
same,"viability, T/C",[44],0.8%
same,"viability, T/C",[45],92.8%
same,"viability, T/C",[46],91.9%
same,"viability, T/C",[47],79.3%
same,"viability, T/C",[48],24.4%
same,"viability, T/C",[49],0.48%
same,"viability, T/C",[50],0.95%
same,"viability, T/C",[51],68%
same,"viability, T/C",[52],70.4%
same,"viability, T/C",[53],56%
same,"viability, T/C",[54],17.4%
same,"viability, T/C",[55],0.25%
same,"viability, T/C",[56],2.24%
same,"viability, T/C","second compound 3.16 µM, first compound 0.00316 µM",39.5%
same,"viability, T/C","second compound 3.16 µM, first compound 0.01 µM",34.9%
same,"viability, T/C","second compound 3.16 µM, first compound 0.0316 µM",27.3%
same,"viability, T/C","second compound 3.16 µM, first compound 0.1 µM",2.89%
same,"viability, T/C","second compound 3.16 µM, first compound 0.316 µM",0.11%
same,"viability, T/C","second compound 3.16 µM, first compound 1 µM",0.23%
same,"viability, T/C","second compound 10 µM, first compound 0.00316 µM",25.1%
same,"viability, T/C","second compound 10 µM, first compound 0.01 µM",21.5%
same,"viability, T/C","second compound 10 µM, first compound 0.0316 µM",14.2%
same,"viability, T/C","second compound 10 µM, first compound 0.1 µM",0.19%
same,"viability, T/C","second compound 10 µM, first compound 0.316 µM",0.18%
same,"viability, T/C","second compound 10 µM, first compound 1 µM",0.36%
CCN1CCN(Cc2ccc(Nc3ncc(F)c(-c4cc(F)c5nc(C)n(C(C)C)c5c4)n3)nc2)CC1 + CNC(C)C(=O)NC1CN(S(=O)(=O)c2cccc(S(=O)(=O)N3CCC4CCC(C(=O)NC(c5ccccc5)c5ccccc5)N4C(=O)C(NC(=O)C(C)NC)C3)c2)CCC2CCC(C(=O)NC(c3ccccc3)c3ccccc3)N2C1=O,IC50,"curve of first compound, second compound 0.00316 µM",261 nM
same,IC50,"curve of first compound, second compound 0.01 µM",298 nM
same,IC50,"curve of first compound, second compound 0.0316 µM",586 nM
same,IC50,[36],441 nM
same,IC50,[37],386 nM
same,IC50,[38],555 nM
same,"viability, T/C","second compound 0.00316 µM, first compound 0.00316 µM",105%
same,"viability, T/C","second compound 0.00316 µM, first compound 0.01 µM",105%
same,"viability, T/C","second compound 0.00316 µM, first compound 0.0316 µM",92.1%
same,"viability, T/C","second compound 0.00316 µM, first compound 0.1 µM",92.4%
same,"viability, T/C","second compound 0.00316 µM, first compound 0.316 µM",41.5%
same,"viability, T/C","second compound 0.00316 µM, first compound 1 µM",16%
same,"viability, T/C","second compound 0.01 µM, first compound 0.00316 µM",106%
same,"viability, T/C","second compound 0.01 µM, first compound 0.01 µM",112%
same,"viability, T/C","second compound 0.01 µM, first compound 0.0316 µM",99.2%
same,"viability, T/C","second compound 0.01 µM, first compound 0.1 µM",60.1%
same,"viability, T/C","second compound 0.01 µM, first compound 0.316 µM",58%
same,"viability, T/C","second compound 0.01 µM, first compound 1 µM",18.8%
same,"viability, T/C","second compound 0.0316 µM, first compound 0.00316 µM",100%
same,"viability, T/C","second compound 0.0316 µM, first compound 0.01 µM",114%
same,"viability, T/C","second compound 0.0316 µM, first compound 0.0316 µM",90.9%
same,"viability, T/C","second compound 0.0316 µM, first compound 0.1 µM",90%
same,"viability, T/C","second compound 0.0316 µM, first compound 0.316 µM",87.9%
same,"viability, T/C","second compound 0.0316 µM, first compound 1 µM",19.5%
same,"viability, T/C",[39],107%
same,"viability, T/C",[40],105%
same,"viability, T/C",[41],102%
same,"viability, T/C",[42],67.7%
same,"viability, T/C",[43],73.3%
same,"viability, T/C",[44],18.9%
same,"viability, T/C",[45],111%
same,"viability, T/C",[46],107%
same,"viability, T/C",[47],90.4%
same,"viability, T/C",[48],61.8%
same,"viability, T/C",[49],61.3%
same,"viability, T/C",[50],33.3%
same,"viability, T/C",[51],100%
same,"viability, T/C",[52],111%
same,"viability, T/C",[53],101%
same,"viability, T/C",[54],101%
same,"viability, T/C",[55],67.8%
same,"viability, T/C",[56],31.3%
